The record followed here is patent US11660306B2, “Treatment of Rett syndrome” (Cold Spring Harbor Laboratory, priority 2014, dated 2023).

Each structure is given as a SMILES string.

One assay concerns the target PTP1B405 (Homo sapiens, UniProt P18031). Nature of the assay: Triterpene inhibition of PTP1B405 (Table 2). The class given is biochemical.
Assay [1] has as its system PTP1B. The assay is described as follows: Reversibility of PTP1B inhibition by triterpenes (Table 2). The class given is biochemical.
The next assay has as its target PTP1B321 (Homo sapiens, UniProt P18031). Nature of the assay: Triterpene inhibition of PTP1B321 (Table 2). The class given is biochemical.
Another assay concerns Mecp2 mutant mice. The assay is described as follows: Anti-diabetic small molecules in Mecp2 mutant mice (FIG. 6D).
The subject of assay [2] is Mecp2−/y mice. Nature of the assay: Glucose tolerance test in Mecp2−/y male mice. Conditions: 5 mg/Kg, two weeks after treatment.
Assay [3] deals with Mecp2−/y mice. The assay is described as follows: Survival of Mecp2-null male mice. The settings on record: for survival (in words): Mecp2-null male mice, 5 mg/kg.
The test system of assay [4] is panel of six PTPs and two dual-specificity phosphatases. Nature of the assay: Specificity against a panel of phosphatases. The class given is biochemical. The procedure:
(§1) In this example, in order to determine the significance of the elevated PTP1B levels in animal models of Rett syndrome, the effects of small molecule inhibitors of the phosphatase were tested. Using para-Nitro Phenyl Phosphate (pNPP) as substrate, PTP1B inhibition by CPT157633 was studied (FIG. 13A). […] To obtain structural insights into the PTP1B-CPT157633 interaction, both biomolecular NMR spectroscopy and X-ray crystallography were used. Residues 1-301 from the catalytic domain of PTP1B were expressed in D2O-based medium and 2D [^1H,^15N] TROSY spectra were recorded in the absence and presence of CPT157633. […] This was confirmed by the crystal structure of the PTP1B:CTP157633 complex, which illustrated a non-covalent interaction. Electrostatic interactions made by the compound to critical active site residues are highlighted in FIG. 13G.
(§2) A second inhibitor of PTP1B that exerts its effect on the enzyme by a different mechanism was characterized. […] It inhibited PTP1B with selectivity compared to a panel of eight phosphatases investigated.

The target in assay [5] is PTP1B (Homo sapiens (Human), UniProt P18031). Nature of the assay: PTP1B phosphatase inhibition. It counts as biochemical. The method, then:
as §1, §2

In general, Ki refers to a measure of affinity in units of concentration, obtained from inhibition or displacement. Read a low Ki as higher affinity.

Chain of PTP1B (Homo sapiens (Human), UniProt P18031) (P18031 whole entry): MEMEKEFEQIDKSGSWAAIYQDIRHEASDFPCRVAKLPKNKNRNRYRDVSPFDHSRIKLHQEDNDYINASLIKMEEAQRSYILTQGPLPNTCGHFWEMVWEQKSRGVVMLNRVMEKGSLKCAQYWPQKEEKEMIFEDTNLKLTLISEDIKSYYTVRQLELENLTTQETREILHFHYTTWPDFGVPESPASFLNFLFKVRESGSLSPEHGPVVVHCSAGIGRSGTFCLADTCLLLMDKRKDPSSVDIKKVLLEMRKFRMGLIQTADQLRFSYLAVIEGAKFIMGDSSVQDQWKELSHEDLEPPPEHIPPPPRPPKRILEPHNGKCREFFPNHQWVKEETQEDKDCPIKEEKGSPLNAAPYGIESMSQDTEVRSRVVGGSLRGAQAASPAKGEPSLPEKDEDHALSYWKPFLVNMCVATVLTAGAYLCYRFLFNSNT

As for `CC1CCC23CCC4(C)C5(C)CCC6C(C)(C)C(=O)CCC6(C)C5C=CC4(OC2)C3C1C` (stereo not drawn), the figures for the Ki on PTP1B405 and at PTP1B321 were 11 µM and 13 µM, respectively. The Reversibility entry with PTP1B [1] is given as “Reversible”.
Take `CC(C)[C@H]1CC[C@]2(C)[C@H]3CC[C@@H]4[C@@]5(C)CCCC(C)(C)[C@@H]5CC[C@@]4(C)[C@]3(C)CC[C@@H]12`: the Ki at PTP1B405 is 5.7 µM; on PTP1B321 it was 9 µM. Further, the Reversibility result with PTP1B [1] was “Reversible”.
On the same counts, the results for `CC1(C)[C@@H](OC(=O)CCC(=O)O)CC[C@]2(C)[C@H]3C(=O)C=C4[C@@H]5C[C@@](C)(C(=O)O)CC[C@]5(C)CC[C@@]4(C)[C@]3(C)CC[C@@H]12` are 5 µM, 7 µM and “Reversible”.
Turning to `CC1(C)CC[C@]2(C(=O)O)CC[C@]3(C)C(=CC[C@@H]4[C@@]5(C)CC[C@H](O)C(C)(C)[C@@H]5CC[C@]43C)[C@@H]2C1`, the Reversibility result with PTP1B [1] was “Reversible”.
Regarding `C=C(C)[C@@H]1CC[C@]2(C(=O)O)CC[C@]3(C)[C@H](CC[C@@H]4[C@@]5(C)CC[C@H](OC(=O)CC(C)(C)C(=O)O)C(C)(C)[C@@H]5CC[C@]43C)[C@@H]12`, the results for the Ki on PTP1B405 and on PTP1B321 were 4.4 µM and 7 µM, respectively. In addition, the Reversibility result with PTP1B [1] was “Irreversible”.
On to `C[C@H]1[C@H](C)CC[C@]2(C)CC[C@]3(C)C(=CC[C@@H]4[C@@]5(C)CC[C@H](O)C(C)(C)[C@@H]5CC[C@]43C)[C@H]12`, for which the Ki on PTP1B405 was determined as 4 µM; on PTP1B321, 6 µM. In the assay with PTP1B [1], the Reversibility entry was “Irreversible”.
For `C[C@H]1C(=O)CC[C@H]2[C@]1(C)CC[C@]13C[C@@]14CC[C@@]1(C)CCC(C)(C)C[C@]15C[C@]54CC[C@@]23C`, the Ki on PTP1B405 is 2 µM; at PTP1B321, 4 µM. In addition, the Reversibility result in the assay with PTP1B [1] is listed as “Reversible”.
As for `CN(CCOc1ccc(CC2SC(=O)NC2=O)cc1)c1ccccn1` (stereo not drawn) [rosiglitazone], in the assay with Mecp2 mutant mice, the “effectiveness compared with PTP1B inhibitors” value was “none of the three inhibitors were as effective as PTP1B inhibitors”.
`C[C@H]1CC[C@@]2(OC1)O[C@H]1C[C@H]3[C@@H]4CC=C5C[C@@H](O)CC[C@]5(C)[C@H]4CC[C@]3(C)[C@H]1[C@@H]2C`: the Ki on PTP1B405 was 25 µM; on PTP1B321, 36 µM. In addition, the Reversibility entry in the assay on PTP1B [1] is “Reversible”.
Regarding `COC(=O)[C@]1(C)CC[C@]2(C)CC[C@]3(C)C4=CC=C5C(=CC(=O)C(O)=C5C)[C@]4(C)CC[C@@]3(C)[C@@H]2C1`, the Ki at PTP1B405 stood at 8 µM; at PTP1B321, 10 µM. For the same molecule, the Reversibility entry in the assay with PTP1B [1] is listed as “Irreversible”.
On to `COC[C@]12CC[C@@H](C)[C@H](C)[C@H]1[C@@]1(O)C=C[C@@H]3[C@@]4(C)CCC(=O)C(C)(C)[C@@H]4CC[C@@]3(C)[C@]1(C)CC2`, for which the Ki on PTP1B405 and on PTP1B321 was 15 µM each time. In the assay on PTP1B [1], the Reversibility entry was “Reversible”.
On to `CC1(C)CC[C@]2(C(=O)O)CC[C@]3(C)C(=CC[C@@H]4[C@@]5(C)C[C@@H](O)[C@H](O)[C@@](C)(CO)[C@@H]5CC[C@]43C)[C@@H]2C1`, for which the results for the Ki on PTP1B405 and at PTP1B321 were 7 µM and 8.3 µM, respectively. Also, in the assay on PTP1B [1], the Reversibility result is reported as “Reversible”.
On the same counts, the results for `CC1=C(O)C(=O)C=C2C1=CC=C1[C@@]2(C)CC[C@@]2(C)[C@@H]3C[C@](C)(C(=O)O)CC[C@]3(C)CC[C@]12C` are 10 µM, 10 µM and “Irreversible”.
In the case of `NC(=O)c1ncn([C@@H]2O[C@H](CO)[C@@H](O)[C@H]2O)c1N` [AICAR], in the assay with Mecp2 mutant mice, the “effectiveness compared with PTP1B inhibitors” value was “none of the three inhibitors were as effective as PTP1B inhibitors”.
On to `C[C@H]1[C@H](C)CC[C@]2(C(=O)O)CC[C@]3(C)C(=CC[C@@H]4[C@@]5(C)C[C@@H](O)[C@H](O)C(C)(C)[C@@H]5CC[C@]43C)[C@H]12`, for which the Ki was determined as 1.5 µM at PTP1B405 and 3 µM on PTP1B321. The Reversibility entry in the assay on PTP1B [1] is “Irreversible”.
Turning to `CC1(C)CC[C@]2(C)CC[C@]3(C)[C@H](CC[C@@H]4[C@@]5(C)CCCC(C)(C)[C@@H]5CC[C@]43C)[C@@H]2C1`, the Ki on PTP1B405 was 9 µM; on PTP1B321, 15 µM. Moreover, the Reversibility entry in the assay with PTP1B [1] was “Reversible”.
For the molecule `C[C@@H]1CC[C@]2(C(=O)NCCCCCCCCCCC(=O)N[C@@H](Cc3ccccc3)C(=O)O)CC[C@]3(C)C(=CCC4[C@@]5(C)CC[C@H](O)C(C)(C)C5CC[C@]43C)C2[C@H]1C` (stereo partly drawn) [UA0713], the glucose intolerance result with Mecp2−/y mice [2] was “markedly reduced”. Moreover, the “survival (in words)” value in the assay with Mecp2−/y mice [3] is given as “improved the survival”. The increase in survival in the assay with Mecp2−/y mice [3] (Mecp2−/y male mice, 5 mg/Kg, versus saline) turned out to be 2 fold. In the assay with Mecp2−/y mice [3] (Mecp2−/y male mice, 5 mg/Kg, saline 40 days), this molecule had a median life-span of 95 days. Further, the “effect against phosphatase panel compared to PTP1B” value in assay [4] is “selectivity”. The “mode of inhibition of PTP1B” value on PTP1B [5] is listed as “non-competitive”. The Ki at PTP1B [5] (substrate not stated) is 0.15 µM.
Turning to `CC1(C)C=C2[C@H]3CC[C@@H]4[C@@]5(C)CCC(=O)C(C)(C)[C@@H]5CC[C@@]4(C)[C@]3(C)CC[C@@]2(C(=O)O)CC1`, the Ki is 5 µM at PTP1B405 and 7 µM on PTP1B321. In addition, the Reversibility entry with PTP1B [1] is reported as “Reversible”.
`C[C@H]1[C@H](C)CC[C@]2(C(=O)O)CC[C@]3(C)C(=CC[C@@H]4[C@@]5(C)CC[C@H](O)C(C)(C)C5CC[C@]43C)[C@H]12` (stereo partly drawn): the Reversibility result in the assay with PTP1B [1] is “Reversible”.
For `C[C@H]1[C@H](C)CC[C@]2(CO)CC[C@]3(C)C(=CC[C@@H]4[C@@]5(C)CC[C@H](O)C(C)(C)[C@@H]5CC[C@]43C)[C@H]12`, the Reversibility result in the assay on PTP1B [1] is “Reversible”.
Consider `CC1(C)CC[C@]2(C(=O)O)CC[C@]3(C)C(=CC[C@@H]4[C@@]5(C)CC[C@H](O)[C@@](C)(CO)[C@@H]5CC[C@]43C)[C@@H]2C1`, for which the Ki at PTP1B405 worked out at 2 µM; at PTP1B321, 3.6 µM. In addition, in the assay on PTP1B [1], the Reversibility result is “Reversible”.
On the same counts, the results for `CC1(C)CC[C@]2(C(=O)O)CC[C@]3(C)C(=CCC4[C@@]5(C)C[C@@H](O)[C@H](O)C(C)(C)[C@@H]5CC[C@]43C)[C@@H]2C1` (stereo partly drawn) are 5.7 µM, 10 µM and “Reversible”.
Take `C=C(C)C1CC[C@]2(C(=O)O)CC[C@]3(C)[C@H](CC[C@@H]4[C@@]5(C)CC[C@H](O)C(C)(C)[C@@H]5CC[C@]43C)[C@@H]12` (stereo partly drawn): the values for the Ki at PTP1B405 and at PTP1B321 were 0.7 µM and 3 µM, respectively. Besides, in the assay on PTP1B [1], the Reversibility result is “Irreversible”.
For the molecule `C=C(C)[C@@H]1CC[C@]2(CO)CC[C@]3(C)[C@H](CC[C@@H]4[C@@]5(C)CC[C@H](O)C(C)(C)[C@@H]5CC[C@]43C)[C@@H]12`, the Ki came to 2 µM on PTP1B405 and 3 µM on PTP1B321. For the same molecule, the Reversibility result in the assay with PTP1B [1] is reported as “Reversible”.
With `CN(C)C(=N)N=C(N)N` [metformin], the “effectiveness compared with PTP1B inhibitors” value in the assay with Mecp2 mutant mice is listed as “none of the three inhibitors were as effective as PTP1B inhibitors”.
As for `CC/C=C/C(C)(O)OCC1(C)C(=O)CCC2(C)C1CCC1(C)C2CCC2C3C(C)C(C)CCC3(C)CCC21C` (stereo not drawn), the Ki at PTP1B405 is 22 µM; at PTP1B321, 18 µM. The Reversibility entry in the assay with PTP1B [1] is listed as “Reversible”.
In the case of `C[C@@H]1CC[C@]2(C(=O)O)CC[C@]3(C)C(=CCC4[C@@]5(C)CC[C@H](O)C(C)(C)C5CC[C@]43C)C2[C@H]1C` (stereo partly drawn) [UA001, ursolic acid, reference compound], the “survival (in words)” value in the assay on Mecp2−/y mice [3] is recorded as “improved the survival”.
For `CC1(C)CC[C@]2(C)CC=C3C(C)(CC[C@@H]4[C@@]5(C)CC[C@H](O)C(C)(C)[C@@H]5CC[C@@]34C)[C@@H]2C1` (stereo partly drawn), the results for the Ki at PTP1B405 and at PTP1B321 were 5 µM and 8 µM, respectively. Moreover, the Reversibility result in the assay on PTP1B [1] is reported as “Reversible”.
`CC1(C)CCC[C@](C)([C@H]2CC[C@]3(C)[C@@H]2[C@H](O)C[C@@H]2[C@@]4(C)CC[C@H](O)C(C)(C)[C@@H]4[C@H](O)C[C@]23C)O1`: the Ki at PTP1B405 was determined as 10 µM; at PTP1B321, 14 µM. Moreover, the Reversibility entry in the assay with PTP1B [1] is given as “Reversible”.
`C=C(C)[C@@H]1CC[C@]2(C)CC[C@]3(C)[C@H](CC[C@@H]4[C@@]5(C)CC[C@H](O)C(C)(C)[C@@H]5CC[C@]43C)[C@@H]12`: the Ki on PTP1B405 was 1.5 µM; on PTP1B321 it was 2.5 µM. The Reversibility result in the assay on PTP1B [1] was “Reversible”.
Regarding `CC1(C)CC[C@]2(C)CC[C@]3(C)C(=CC[C@@H]4[C@@]5(C)CC[C@@H](O)[C@](C)(C(=O)O)[C@@H]5CC[C@]43C)[C@@H]2C1`, the Ki at PTP1B405 was found to be 4 µM; on PTP1B321, 6 µM. In addition, the Reversibility result with PTP1B [1] was “Reversible”.
On to `CC1(C)[C@@H](O)CC[C@]2(C)[C@H]3C(=O)C=C4[C@@H]5C[C@@](C)(C(=O)O)CC[C@]5(C)CC[C@@]4(C)[C@]3(C)CC[C@@H]12`, for which the Reversibility result with PTP1B [1] is “Reversible”.
